The target in this assay is T1, Bile acid receptor (Homo sapiens, UniProt Q96RI1).
T1 sequence (Q96RI1 whole entry): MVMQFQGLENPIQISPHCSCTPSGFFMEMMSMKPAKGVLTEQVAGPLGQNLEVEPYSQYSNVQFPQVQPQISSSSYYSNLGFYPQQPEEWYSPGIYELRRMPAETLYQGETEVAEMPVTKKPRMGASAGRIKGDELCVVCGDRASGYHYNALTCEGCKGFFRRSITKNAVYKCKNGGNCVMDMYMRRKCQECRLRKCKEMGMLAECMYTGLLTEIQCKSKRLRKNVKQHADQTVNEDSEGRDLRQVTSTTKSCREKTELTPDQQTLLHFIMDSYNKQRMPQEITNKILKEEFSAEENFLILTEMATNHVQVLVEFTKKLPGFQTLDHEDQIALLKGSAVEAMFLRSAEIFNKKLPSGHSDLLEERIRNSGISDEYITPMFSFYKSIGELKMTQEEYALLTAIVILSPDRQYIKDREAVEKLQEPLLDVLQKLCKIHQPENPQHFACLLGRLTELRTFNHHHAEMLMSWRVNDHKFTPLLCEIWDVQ
Put plainly: Agonist activity at FXR-LBD (unknown origin) incubated for 3 hrs using fluorescein coactivator peptide by FRET assay.

Structures are written as SMILES.

In turn, `O=C(O)c1ccc(OCc2ccc(OCc3c(-c4c(Cl)cccc4Cl)noc3C3CC3)cc2)cc1` had an EC50 of 253 nM.
